Patent US12416008B2, “Compositions and methods of use for small-molecule regulation of CRISPR-Cas9 activity using RNA aptamers” (priority 2019, dated 2025)
Marks after values point to notes of the source that are not given here.

Tests used:
[1] = system: galK 1 site; test: red/white colony screen of editing efficiency at the galK 1 site (CREATE recombineering); assay type: cell-based, E. coli MG1655; details: for Editing Efficiency 1 mM Theo: induced for 3 hours with 1 mM theophylline; for Editing Efficiency no Theo: no theophylline, 3 hours recovery
Method: Candidates from this enriched library were analyzed to inform an improved library design. After three selection/counterselection steps, cells were plated on M63 selection medium^20 and 150 colonies were picked. Each isolated candidate was then transformed into unedited E. coli to screen for theophylline-responsive constructs using a red/white colony assay to quantify the percentage of edited bacteria. Colonies with an unedited galK site appear red whereas edited colonies appear white (FIG. 5). The percentage of white colonies is considered the editing efficiency. Gene editing was induced as previously described with or without adding theophylline and the editing efficiencies were compared.
The protocol established by Garst et al was mainly followed. LB containing kanamycin and chloramphenicol was inoculated with MGλ9 cells and grown overnight at 30° C. The stationary culture was diluted 100 fold in LB, containing chloramphenicol, kanamycin and 0.2% arabinose and grown to an OD600=0.4-0.6 in 25 mL LB. The culture was heat-shocked in a shaking waterbath at 42° C. for 15 minutes to induce expression of the lambda-red proteins from pSIM5. Then, the culture was washed in two volumes of ice-cold deionized water, resuspended in 500 μl deionized water and 50 μl of the cell suspension was electroporated with 200 ng of a CREATE plasmid that encodes gRNA and homology template. The transformants were recovered in 4 mL of LB, containing 0.2% arabinose and optionally 1 mM theophylline or 1 μM anhydrotetracycline (ATC), and shaken at 37° C. for 3 hours before plating on MacConkey Agar. To estimate the number of cfu, aliquots were plated on LB agar 1 hour after transformation.
(§1) In order to assess the frequency of gene editing, a red/white screen was used to visualize the introduction of a stop codon into the galK gene by CREATE. The original CREATE protocol was used for inducing gene editing and after 3 hours of recovery (with or without the agRNA ligand) a series of dilutions of the cultures were plated on MacConkey Agar plates containing 1% galactose. Bacterial colonies with a mutated galK* site appear white on the plates, whereas non-edited colonies appear red. The editing efficiency could be calculated by dividing the number of edited colonies over the total number of colonies. By comparing the editing efficiency in presence versus absence of the ligand, a dynamic range of the in vivo activity could be determined.
When screening the enriched libraries for switchable constructs, the transformants were recovered in 4 mL of LB broth, a dilution series was plated for every construct and the experiment was only carried out once due to the large volume of colonies screened (˜250 in total). When the constructs A9 and GU19 were characterized in detail, triplica of the experiment were carried out.

[2] = target: T1, Streptococcus pyogenes Cas9 (Streptococcus pyogenes serotype M1, UniProt Q99ZW2); test: electrophoretic mobility shift assay (EMSA) of Cas9 binding to gRNAs; details: presence or absence of 250 μM theophylline
T1 construct: host or cells: E. coli BL21 (DE3) Rosetta

[3] = system: xylA gene; test: red/white screen of editing at the xylA gene; assay type: cell-based, E. coli; details: 1 mM theophylline
Method: (§2) Promising agRNA constructs were analyzed in further detail. […] The xylA gene was targeted with these 17 agRNAs to test whether a different spacer sequence affects the performance. Editing was quantified with the same red/white screen. […] To confirm sequence independence of those two agRNAs, they were used to edit three more alternative sites at the galK gene. […] Sequencing confirmed that the phenotypic change in the assay corresponded to a designed genomic edit (FIG. 7). The observation that a number of agRNAs only act at the selected galK1 site highlights that the CRISPR-Cas9 system can be selected to act at a single sequence, a feature that could be exploited for reducing off-target effects.
as §1, with “Bacterial colonies with a mutated galK* site appear white on the plates, whereas non-edited colonies appear red.” left out

[4] = system: alternative sites at the galK gene; test: editing at three more alternative sites at the galK gene; assay type: cell-based, E. coli; details: with or without 1 mM theophylline
Method: as §2
as §1, with “Bacterial colonies with a mutated galK* site appear white on the plates, whereas non-edited colonies appear red.” left out

[5] = system: MGλ9 strain; test: transformation and editing efficiency, agRNAs activated with theophylline 1 hour after transformation (aptamer-protocol); assay type: cell-based, E. coli; details: theophylline added 1 hour after transformation; for increase in number of transformants: versus wt gRNA
Method: FIGS. 3A-3D show aptamer-gRNAs enable high-throughput genome editing. FIG. 3A is a schematic showing the workflow of the aptamer-controlled gene editing. […] CFUs are colony forming units μg-1 DNA and per 4 mL of recovery media. […] Each dot represents a biological replicate and error bars indicate standard deviation from the mean. FIG. 3C is a schematic of the plasmid design used to enable multiplexed gene editing. The individual homology arms and agRNAs are identical to the ones previously described for the single-edit experiments. […] The values represent the average of three biological replicates.
Equipped with temporally controllable agRNAs, the gene editing technology CREATE^10 was optimized. One major drawback of CRISPR-mediated bacterial gene editing technologies is cell death caused by dsDNA cuts^10, despite overexpression of λ-red proteins to increase the frequency of homologous repair. Without wishing to be bound by theory, it is hypothesized that the stress of transformation combined with rapid generation of dsDNA breaks synergistically leads to a high level of cell death. […] Although a low transformation efficiency is not a significant issue when creating a single edit with a defined sgRNA, it dramatically impacts the ability to transform a library of sgRNA plasmids to generate a population of bacteria with different edits. In this process, a portion of gRNAs from the library is expected to be non-functional due to errors in oligonucleotide synthesis, sgRNA misfolding, or inefficient targeting.
LB containing kanamycin and chloramphenicol was inoculated with MGλ9 cells and grown overnight at 30° C. The stationary culture was diluted 100 fold in LB, containing chloramphenicol and kanamycin and grown to an OD600=0.4-0.6 in 25 mL LB. Then, the culture was washed in two volumes of ice-cold deionized water, resuspended in 500 μl deionized water and 50 μl of the cell suspension was electroporated with 200 ng of a CREATE plasmid that encodes gRNA and homology template. The transformants were recovered in 4 mL of LB, containing 0.2% arabinose and shaken at 30° C. for 1 hour. The culture was heat-shocked in a shaking waterbath at 42° C. for 15 minutes and 1 mM theophylline or 1 μM ATC was added to the culture. The culture was shaken at 37° C. for 3 hours before plating on MacConkey Agar. To estimate the number of cfu, aliquots were plated on LB agar 1 hour after transformation.

[6] = system: galK1 site; test: co-transformation of targeting gRNA plasmid with non-targeting gRNA plasmid (simulated library); details: for # of unedited colonies carrying non-targeting gRNA plasmid: 16 unedited colonies picked, 20 ng non-targeting + 180 ng targeting plasmid, 1 mM theophylline; for percentage of edited cells: plasmid mixture 90% targeting galK1, 10% non-targeting (eGFP) gRNA
[7] = system: galK 1 site; test: red/white colony screen of editing efficiency at the galK 1 site (CREATE recombineering); assay type: cell-based, E. coli MG1655; details: galK1 site; agRNAs A9 and GU19 (FIG. 2A)
[8] = system: galK (site 1) and xylA (site 2); test: multiplexed gene editing with theophylline-regulated GU19-agRNA and 3MX-regulated A9-agRNA on one plasmid; assay type: cell-based, E. coli; details: 3-hour induction with 1 mM of a single ligand
Method: A plasmid was designed that expressed a theophylline-regulated GU19-agRNA targeting galK1 and a 3-methylxanthine (3MX)-regulated A9-agRNA targeting the xylA gene. […] The plasmid construct was then used for a 3-hour induction with either 1 mM theophylline, 1 mM 3MX or a combination of the two and the transformed bacteria were plated on MacConkey agar that contained either galactose, xylose or both to assay editing of the galK and xylA genes with the red/white screen (FIG. 3D, FIG. 11).
For the purpose of first adding theophylline and later 3MX to independently induce two different agRNAs, the protocol was slightly modified. First, the bacteria were prepared and transformed as in the original protocol, 1 mM theophylline was added to the media and the culture was shaken at 30° C. for three hours. Then, the culture was heat-shocked again at 42° C. for 15 minutes to induce expression of the lambda-red proteins again and 1 mM 3MX was added to the media. The culture was shaken at 37° C. for three hours and then plated.

[9] = target: isolated aptamer (theophylline aptamer); details: theophylline binding; cited from earlier work

T1 sequence (Q99ZW2 whole entry): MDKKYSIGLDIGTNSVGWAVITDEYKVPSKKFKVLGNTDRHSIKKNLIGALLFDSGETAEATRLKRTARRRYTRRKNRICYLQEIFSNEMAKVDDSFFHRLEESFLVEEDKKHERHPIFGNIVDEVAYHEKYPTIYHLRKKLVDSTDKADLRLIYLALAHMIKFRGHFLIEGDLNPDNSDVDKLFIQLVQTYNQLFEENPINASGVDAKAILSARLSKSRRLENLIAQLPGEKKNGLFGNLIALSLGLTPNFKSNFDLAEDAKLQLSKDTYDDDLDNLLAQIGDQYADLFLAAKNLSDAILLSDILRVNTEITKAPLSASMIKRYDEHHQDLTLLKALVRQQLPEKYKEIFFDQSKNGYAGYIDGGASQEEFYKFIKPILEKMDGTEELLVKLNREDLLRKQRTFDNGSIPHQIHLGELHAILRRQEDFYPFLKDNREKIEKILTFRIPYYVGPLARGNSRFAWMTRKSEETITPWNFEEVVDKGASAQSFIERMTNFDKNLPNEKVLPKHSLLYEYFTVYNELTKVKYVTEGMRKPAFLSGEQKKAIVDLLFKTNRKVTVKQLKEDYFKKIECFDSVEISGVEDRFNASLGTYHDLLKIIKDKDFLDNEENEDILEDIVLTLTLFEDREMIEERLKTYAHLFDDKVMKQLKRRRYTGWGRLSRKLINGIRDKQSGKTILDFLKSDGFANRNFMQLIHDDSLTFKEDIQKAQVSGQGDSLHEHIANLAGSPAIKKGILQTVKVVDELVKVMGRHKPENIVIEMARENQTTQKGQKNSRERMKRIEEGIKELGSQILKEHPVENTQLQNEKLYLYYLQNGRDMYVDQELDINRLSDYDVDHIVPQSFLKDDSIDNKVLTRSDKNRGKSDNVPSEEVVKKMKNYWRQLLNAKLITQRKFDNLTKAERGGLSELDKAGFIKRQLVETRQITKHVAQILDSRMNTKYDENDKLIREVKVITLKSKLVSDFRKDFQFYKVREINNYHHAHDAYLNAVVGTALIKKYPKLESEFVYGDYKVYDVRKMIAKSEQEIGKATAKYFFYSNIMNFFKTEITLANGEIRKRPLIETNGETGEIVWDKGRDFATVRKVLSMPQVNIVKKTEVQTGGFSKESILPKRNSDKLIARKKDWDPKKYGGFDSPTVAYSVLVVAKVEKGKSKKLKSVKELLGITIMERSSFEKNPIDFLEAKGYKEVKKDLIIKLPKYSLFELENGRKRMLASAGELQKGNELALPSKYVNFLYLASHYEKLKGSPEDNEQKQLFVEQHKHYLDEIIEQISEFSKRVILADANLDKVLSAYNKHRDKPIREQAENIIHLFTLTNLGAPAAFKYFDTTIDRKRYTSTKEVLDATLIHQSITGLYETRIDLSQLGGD

Row | Compound | Editing Efficiency 1 mM Theo [1] [%**] | Editing Efficiency no Theo [1] [%**] | apparent binding affinity to the Cas9 protein [2] | editing efficiency at xylA compared with galK1 (in words) [3] | targetability of alternative galK sites (in words) [4] | editing efficiencies [5] [%] | increase in number of transformants [5] | # of unedited colonies carrying non-targeting gRNA plasmid [6] | percentage of edited cells [6] [%] | dependence of editing efficiency on theophylline concentration and induction time [7] | editing of galK and xylA upon induction (in words) [8] | Kd [9] [nM]
1 | GU19: agRNA cassette GATCGGCCATAGAT, SEQ ID NO: 51 (chemistry not given here) | 64 | 3 | the same apparent binding affinity to the Cas9 protein as the wild type gRNA, independent of theophylline | editing efficiency at xylA similar to the galK1 site used during selection | more site-dependent, but also showed less background activity | ~80 | 10^4 fold | 6/16 | 63 |  |  | 
2 | Cn1c(=O)c2[nH]cnc2n(C)c1=O [theophylline] |  |  |  |  |  |  |  |  |  | increased with the concentration of theophylline and induction time | induced editing of the galK gene but not the xylA gene | 400
3 | A9: agRNA cassette TGAAGGCCGCAACA, SEQ ID NO: 5 (chemistry not given here) | 81 | 9 | the same apparent binding affinity to the Cas9 protein as the wild type gRNA, independent of theophylline | editing efficiency at xylA similar to the galK1 site used during selection | Only one of those sites was not targetable | ~80 | 10^4 fold | 9/16 | 81 |  |  | 
4 | Cn1c(=O)[nH]c(=O)c2nc[nH]c21 [3MX, 3-methylxanthine] |  |  |  |  |  |  |  |  |  |  | induced mostly editing of xylA and to a lesser extent galK | 
